According to ChEMBL document CHEMBL5291721, “A preclinical secondary pharmacology resource illuminates target-adverse drug reaction associations of marketed drugs” (Nat Commun, 2023):
“And” between values parts separate entries of the source, which are not always exact repeats. Identical values can stand only once.

How the values were obtained:
[1] = target: T1, Alpha-1A adrenergic receptor (Homo sapiens, UniProt P35348); type: functional, cell-based
T1 sequence (P35348 whole entry): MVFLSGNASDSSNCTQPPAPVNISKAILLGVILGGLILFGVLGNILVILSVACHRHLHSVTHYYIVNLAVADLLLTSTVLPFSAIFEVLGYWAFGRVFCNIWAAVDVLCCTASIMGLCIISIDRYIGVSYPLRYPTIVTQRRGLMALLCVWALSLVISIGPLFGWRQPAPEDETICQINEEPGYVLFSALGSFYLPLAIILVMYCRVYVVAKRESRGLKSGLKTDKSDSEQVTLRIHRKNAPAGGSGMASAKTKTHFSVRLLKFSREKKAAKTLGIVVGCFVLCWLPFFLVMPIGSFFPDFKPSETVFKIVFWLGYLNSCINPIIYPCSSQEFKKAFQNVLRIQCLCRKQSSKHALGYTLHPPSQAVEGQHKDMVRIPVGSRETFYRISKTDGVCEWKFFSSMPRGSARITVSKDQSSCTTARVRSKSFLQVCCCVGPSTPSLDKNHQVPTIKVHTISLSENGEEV

[2] = target: T2, Muscarinic acetylcholine receptor M1 (Homo sapiens, UniProt P11229); type: functional, cell-based
T2 sequence (P11229 whole entry): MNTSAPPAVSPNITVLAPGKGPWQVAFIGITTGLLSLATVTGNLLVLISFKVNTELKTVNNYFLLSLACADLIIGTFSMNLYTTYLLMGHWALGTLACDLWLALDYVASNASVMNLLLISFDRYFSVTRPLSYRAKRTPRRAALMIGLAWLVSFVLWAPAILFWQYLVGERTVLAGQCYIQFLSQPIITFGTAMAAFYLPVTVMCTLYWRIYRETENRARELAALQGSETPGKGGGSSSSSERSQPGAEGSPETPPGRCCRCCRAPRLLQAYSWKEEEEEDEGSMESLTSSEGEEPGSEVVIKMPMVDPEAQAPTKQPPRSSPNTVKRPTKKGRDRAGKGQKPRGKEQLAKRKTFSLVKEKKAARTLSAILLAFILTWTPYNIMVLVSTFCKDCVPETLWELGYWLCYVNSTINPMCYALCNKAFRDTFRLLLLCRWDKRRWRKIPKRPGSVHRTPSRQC

[3] = target: T3, B2 bradykinin receptor (Homo sapiens, UniProt P30411)
T3 sequence (P30411 whole entry): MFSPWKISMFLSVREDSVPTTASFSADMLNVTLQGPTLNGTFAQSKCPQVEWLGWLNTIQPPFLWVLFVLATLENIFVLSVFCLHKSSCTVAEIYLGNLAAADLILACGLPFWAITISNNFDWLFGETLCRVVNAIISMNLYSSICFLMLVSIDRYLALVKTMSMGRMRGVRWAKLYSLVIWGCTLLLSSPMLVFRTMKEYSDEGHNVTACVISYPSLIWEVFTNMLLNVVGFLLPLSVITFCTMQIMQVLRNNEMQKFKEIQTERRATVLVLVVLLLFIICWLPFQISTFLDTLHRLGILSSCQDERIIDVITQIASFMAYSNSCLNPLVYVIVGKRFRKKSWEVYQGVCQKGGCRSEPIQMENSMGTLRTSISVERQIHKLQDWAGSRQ

[4] = target: T4, Gastrin/cholecystokinin type B receptor (Homo sapiens, UniProt P32239)
T4 sequence (P32239 whole entry): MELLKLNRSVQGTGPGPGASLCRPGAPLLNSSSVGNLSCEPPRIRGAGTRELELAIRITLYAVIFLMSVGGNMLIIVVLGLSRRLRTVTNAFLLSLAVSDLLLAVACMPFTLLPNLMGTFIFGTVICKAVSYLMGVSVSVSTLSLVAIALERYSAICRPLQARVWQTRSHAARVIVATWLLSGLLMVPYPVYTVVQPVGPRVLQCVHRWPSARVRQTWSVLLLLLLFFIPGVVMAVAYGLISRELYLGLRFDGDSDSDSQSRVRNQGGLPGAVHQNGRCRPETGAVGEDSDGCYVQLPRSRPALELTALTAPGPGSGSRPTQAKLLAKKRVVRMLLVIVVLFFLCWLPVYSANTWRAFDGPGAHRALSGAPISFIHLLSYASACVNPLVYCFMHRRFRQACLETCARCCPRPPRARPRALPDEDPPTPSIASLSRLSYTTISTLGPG

[5] = target: T5, Endothelin-1 receptor (Homo sapiens, UniProt P25101)
T5 sequence (P25101 whole entry): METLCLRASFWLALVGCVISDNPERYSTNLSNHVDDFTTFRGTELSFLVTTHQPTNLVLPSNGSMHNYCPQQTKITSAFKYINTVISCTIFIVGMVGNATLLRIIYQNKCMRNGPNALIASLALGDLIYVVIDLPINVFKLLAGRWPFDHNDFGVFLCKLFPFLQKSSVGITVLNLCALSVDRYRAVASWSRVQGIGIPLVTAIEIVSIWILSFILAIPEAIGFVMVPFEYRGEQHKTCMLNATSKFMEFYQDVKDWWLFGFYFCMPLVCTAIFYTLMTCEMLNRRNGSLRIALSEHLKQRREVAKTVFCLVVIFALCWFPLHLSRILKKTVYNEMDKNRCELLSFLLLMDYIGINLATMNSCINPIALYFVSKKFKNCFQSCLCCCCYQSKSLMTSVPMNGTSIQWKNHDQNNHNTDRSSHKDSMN

[6] = target: T6, 5-hydroxytryptamine receptor 1A (Homo sapiens, UniProt P08908); type: functional, cell-based
T6 sequence (P08908 whole entry): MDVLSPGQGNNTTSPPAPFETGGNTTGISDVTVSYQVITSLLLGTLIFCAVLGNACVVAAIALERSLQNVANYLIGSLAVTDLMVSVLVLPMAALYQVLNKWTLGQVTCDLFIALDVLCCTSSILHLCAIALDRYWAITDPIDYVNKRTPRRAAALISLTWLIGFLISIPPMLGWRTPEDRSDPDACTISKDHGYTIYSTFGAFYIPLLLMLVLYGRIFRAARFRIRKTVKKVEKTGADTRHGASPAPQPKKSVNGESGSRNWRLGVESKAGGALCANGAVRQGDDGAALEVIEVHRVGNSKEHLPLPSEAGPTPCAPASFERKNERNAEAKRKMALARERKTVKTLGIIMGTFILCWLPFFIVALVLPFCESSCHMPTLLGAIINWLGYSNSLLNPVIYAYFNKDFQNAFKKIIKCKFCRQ

[7] = target: T6, 5-hydroxytryptamine receptor 1A; type: functional, cell-based; remark: listed apart in the source
[8] = target: T7, 5-hydroxytryptamine receptor 2B (Homo sapiens, UniProt P41595); type: functional, cell-based
T7 sequence (P41595 whole entry): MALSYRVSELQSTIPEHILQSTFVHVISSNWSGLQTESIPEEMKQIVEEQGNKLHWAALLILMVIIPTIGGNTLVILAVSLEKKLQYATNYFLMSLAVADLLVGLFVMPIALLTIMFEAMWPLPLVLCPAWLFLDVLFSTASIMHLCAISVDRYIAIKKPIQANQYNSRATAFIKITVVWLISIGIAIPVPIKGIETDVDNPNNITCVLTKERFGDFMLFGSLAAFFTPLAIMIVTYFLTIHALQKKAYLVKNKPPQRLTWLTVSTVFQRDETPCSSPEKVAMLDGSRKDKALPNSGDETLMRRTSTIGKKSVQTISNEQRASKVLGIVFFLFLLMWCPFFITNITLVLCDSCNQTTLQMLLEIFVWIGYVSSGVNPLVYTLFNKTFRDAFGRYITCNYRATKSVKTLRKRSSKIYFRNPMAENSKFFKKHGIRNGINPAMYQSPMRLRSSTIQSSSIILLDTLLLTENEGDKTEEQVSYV

[9] = target: T7, 5-hydroxytryptamine receptor 2B; type: functional, cell-based; remark: listed apart in the source
[10] = target: Sodium-dependent noradrenaline transporter (Homo sapiens, UniProt P23975)
Sodium-dependent noradrenaline transporter, sequence (P23975 whole entry): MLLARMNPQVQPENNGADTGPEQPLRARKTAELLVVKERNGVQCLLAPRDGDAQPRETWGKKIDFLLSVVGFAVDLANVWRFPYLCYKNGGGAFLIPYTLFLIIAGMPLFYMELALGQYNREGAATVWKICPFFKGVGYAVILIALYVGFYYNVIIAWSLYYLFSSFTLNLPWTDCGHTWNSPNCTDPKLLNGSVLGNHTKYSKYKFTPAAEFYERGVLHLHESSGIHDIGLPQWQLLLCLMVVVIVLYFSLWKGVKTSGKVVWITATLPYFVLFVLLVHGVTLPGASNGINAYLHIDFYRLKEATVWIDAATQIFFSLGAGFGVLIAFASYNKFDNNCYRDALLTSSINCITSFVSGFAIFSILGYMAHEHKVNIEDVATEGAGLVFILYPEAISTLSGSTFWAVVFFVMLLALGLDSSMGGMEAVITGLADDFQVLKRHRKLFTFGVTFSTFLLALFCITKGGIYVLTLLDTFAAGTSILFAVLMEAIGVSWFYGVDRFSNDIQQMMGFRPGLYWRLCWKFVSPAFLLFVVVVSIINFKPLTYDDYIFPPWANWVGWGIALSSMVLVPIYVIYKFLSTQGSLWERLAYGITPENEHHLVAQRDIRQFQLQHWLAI
Also: assay procedure not described here.

| Structure (SMILES) | AC50 [1] | AC50 [2] | AC50 [3] | AC50 [4] | AC50 [5] | AC50 [6] | AC50 [7] | AC50 [8] | AC50 [9] | AC50 [10] |
| --- | --- | --- | --- | --- | --- | --- | --- | --- | --- | --- |
| CC[C@H](c1ccc(O)cc1)[C@@H](CC)c1ccc(O)cc1 [HEXESTROL] | 25.9 µM | 22.8 µM | – | – | – | – | – | – | – | – |
| N#Cc1ccc2c(c1)N(CCCN1CCC(O)CC1)c1ccccc1S2 [PERICIAZINE] | – | > 30 µM | – | – | – | – | – | – | – | – |
| Cc1onc(-c2ccccc2)c1-c1ccc(S(N)(=O)=O)cc1 [VALDECOXIB] | > 30 µM | – | > 30 µM | > 30 µM | > 30 µM | > 10 µM | > 10 µM | > 10 µM | > 10 µM | – |
| OC[C@H]1O[C@@H](c2ccc(Cl)c(Cc3ccc(O[C@H]4CCOC4)cc3)c2)[C@H](O)[C@@H](O)[C@@H]1O [EMPAGLIFLOZIN] | > 30 µM | > 30 µM | – | – | – | – | – | – | – | – |
| C/C=C/C/C=C/CCC(=O)[C@H]1O[C@H]1C(N)=O [CERULENIN] | > 30 µM | > 30 µM | – | – | – | – | – | – | – | – |
| CCn1cc(C(=O)O)c(=O)c2cc3c(cc21)OCO3 [OXOLINIC ACID] | > 30 µM | > 30 µM | – | – | – | – | – | – | – | – |
| CCOC(=O)C1=C[C@@H](OC(CC)CC)[C@H](NC(C)=O)[C@@H](N)C1 [OSELTAMIVIR] | > 30 µM | > 30 µM | – | – | – | – | – | – | – | – |
| Cc1onc(-c2ccccc2)c1C(=O)N[C@@H]1C(=O)N2[C@@H]1SC(C)(C)[C@@H]2C(=O)O [OXACILLIN] | > 30 µM | > 30 µM | – | – | – | – | – | – | – | – |
| CC(CN1CC(=O)NC(=O)C1)N1CC(=O)NC(=O)C1 (centres undefined) [RAZOXANE] | > 30 µM | > 30 µM | – | – | – | – | – | – | – | – |
| CC(C)OC(=O)CCC/C=C\C[C@@H]1[C@@H](/C=C/C(F)(F)COc2ccccc2)[C@H](O)C[C@@H]1O [TAFLUPROST] | > 30 µM | > 30 µM | – | – | – | – | – | – | – | – |
| Nc1ccc(C(=O)Oc2ccccc2)c(O)c1 [PHENYL AMINOSALICYLATE] | > 30 µM | > 30 µM | – | – | – | – | – | – | – | – |
| Nc1ccc(S(=O)(=O)Nc2nccs2)cc1 [SULFATHIAZOLE] | – | – | > 30 µM | > 30 µM | > 30 µM | > 10 µM | > 10 µM | > 10 µM | > 10 µM | > 10 µM |
| CC(C)N(CCC(C(N)=O)(c1ccccc1)c1ccccn1)C(C)C (centres undefined) [DISOPYRAMIDE] | – | – | > 30 µM | > 30 µM | > 30 µM | > 10 µM | > 10 µM | > 10 µM | > 10 µM | > 30 µM |
| CCCC(CCC)C(=O)O [VALPROIC ACID] | – | – | > 30 µM | > 30 µM | > 30 µM | > 10 µM | > 10 µM | > 10 µM | > 10 µM | > 30 µM |
| OC[C@H]1O[C@@](CO)(O[C@H]2O[C@H](CO)[C@@H](O)[C@H](O)[C@H]2O)[C@@H](O)[C@@H]1O [SUCROSE] | – | – | > 30 µM | > 30 µM | > 30 µM | > 30 µM | > 30 µM | > 30 µM | > 30 µM | > 30 µM |
| C[C@H]1c2cccc(O)c2C(=O)C2=C(O)[C@]3(O)C(=O)C(C(N)=O)=C(O)[C@@H](N(C)C)[C@@H]3[C@@H](O)[C@@H]21 [DOXYCYCLINE] | – | – | > 30 µM | > 30 µM | > 30 µM | > 10 µM | > 10 µM | > 10 µM | > 10 µM | > 10 µM |
| CO[C@H]1/C=C/O[C@@]2(C)Oc3c(C)c(O)c4c(O)c(c(/C=N/N5CCN(C)CC5)c(O)c4c3C2=O)NC(=O)/C(C)=C\C=C\[C@H](C)[C@H](O)[C@@H](C)[C@@H](O)[C@@H](C)[C@H](OC(C)=O)[C@@H]1C [RIFAMPIN] | – | – | 18.6 µM | > 30 µM | > 30 µM | > 30 µM | > 10 µM | > 30 µM | > 30 µM | 20 µM |
| C=CC[C@@H]1/C=C(\C)C[C@H](C)C[C@H](OC)[C@H]2O[C@@](O)(C(=O)C(=O)N3CCCC[C@H]3C(=O)O[C@H](/C(C)=C/[C@@H]3CC[C@@H](O)[C@H](OC)C3)[C@H](C)[C@@H](O)CC1=O)[C@H](C)C[C@@H]2OC [TACROLIMUS ANHYDROUS] | – | – | > 30 µM | > 30 µM | > 30 µM | > 10 µM | > 30 µM | > 30 µM | 23 µM and 20 µM | > 30 µM |
| N[C@@H](CC(=O)N1CCn2c(nnc2C(F)(F)F)C1)Cc1cc(F)c(F)cc1F [SITAGLIPTIN] | – | – | > 10 µM | > 10 µM | > 30 µM | > 30 µM | > 30 µM | > 30 µM | > 30 µM | > 30 µM |
| CC(C(=O)O)c1ccc2c(c1)[nH]c1ccc(Cl)cc12 (centres undefined) [CARPROFEN] | – | – | > 30 µM | > 30 µM | > 10 µM | > 10 µM | > 10 µM | > 10 µM | > 10 µM | > 30 µM |
| CC(C)c1nc(N(C)S(C)(=O)=O)nc(-c2ccc(F)cc2)c1/C=C/[C@@H](O)C[C@@H](O)CC(=O)O [ROSUVASTATIN] | – | – | > 30 µM | > 30 µM | > 30 µM | > 30 µM | > 30 µM | > 30 µM | > 30 µM | > 30 µM |
| CN(C)CC[C@@H](c1ccc(Cl)cc1)c1ccccn1 [DEXCHLORPHENIRAMINE] | – | – | > 30 µM | > 30 µM | > 30 µM | > 30 µM | 22 µM | > 30 µM | > 30 µM | 18 µM |
| CC(C)Cc1ccc(C(C)C(=O)O)cc1 (centres undefined) [IBUPROFEN] | > 30 µM | – | > 30 µM | > 30 µM | > 30 µM | > 10 µM | > 10 µM | > 10 µM | > 10 µM | > 30 µM |
